Measured values as given in patent US8399684B2, “Sulfonamide-based organocatalysts and method for their use” (State of Oregon acting by and through the State Board of …, priority 2007, dated 2013).
Converted amounts (≈) assume the structure as drawn.

Experiments:
[1] = Solubility of catalysts screened in methylene chloride (dichloromethane); assay type: physicochemical
Source text: In order to explore the effects of solvent polarity, the solubility of certain catalysts in methylene chloride was screened. Disclosed catalysts typically have a solubility of at least 10 milligrams/milliliter in dichloromethane, and typically at least 50 milligrams/milliliter in dichloromethane.
The absence of a significant non-polar region to the molecule may be the origin of this poor solubility. […] Sulfonamides are ideal choices for proline mimetics as their pKa has been documented to nicely match that of proline.
Ester-based catalysts according to the present disclosure also have markedly better solubilities than previously known compounds.

[2] = Solubility of catalysts under the intramolecular Michael addition conditions; assay type: physicochemical; settings: chlorinated reaction solvent, incl. lower temperatures; compared with tetrazole 11 and sulfonamides 12-14
Source text: Proline sulfonamides were tried next as potential organocatalysts. While these ligands have shown promise in certain organocatalyzed reactions, they previously have proven problematic in facilitating Michael addition processes. Proline sulfonamides performed well, providing improved enantiomeric excess (e.e.) at room temperature (Entries 6-8). […] This sulfonamide 15 is readily accessible from the commercially available para-dodecylsulfonylchloride (16) and Cbz-protected proline 18 in 3 steps (Scheme 16).

For `CCCCCCCCCCCCc1ccc(S(=O)(=O)NC(=O)C2CCCN2)cc1` (centres unmarked) [Sulfonamide 15, N-(p-dodecylphenylsulfonyl)-2-Pyrrolidinecarboxamide], the solubility in dichloromethane [1] was 300 mg/mL (≈ 710 mM) and the “solubility (in words)” value [2] was “greatly improved solubility properties”.
